In BindingDB's records for doi:10.7270/Q2125R2H (University of Pittsburgh, 2007):

What follows are compounds tested against T1, M-phase inducer phosphatase 2 (Homo sapiens, UniProt P30305) (assay: inhibition of Cdc25B dual-specificity phosphatase – biochemical, probe assessment, dose response (AID 676)).
T1 sequence (P30305 whole entry): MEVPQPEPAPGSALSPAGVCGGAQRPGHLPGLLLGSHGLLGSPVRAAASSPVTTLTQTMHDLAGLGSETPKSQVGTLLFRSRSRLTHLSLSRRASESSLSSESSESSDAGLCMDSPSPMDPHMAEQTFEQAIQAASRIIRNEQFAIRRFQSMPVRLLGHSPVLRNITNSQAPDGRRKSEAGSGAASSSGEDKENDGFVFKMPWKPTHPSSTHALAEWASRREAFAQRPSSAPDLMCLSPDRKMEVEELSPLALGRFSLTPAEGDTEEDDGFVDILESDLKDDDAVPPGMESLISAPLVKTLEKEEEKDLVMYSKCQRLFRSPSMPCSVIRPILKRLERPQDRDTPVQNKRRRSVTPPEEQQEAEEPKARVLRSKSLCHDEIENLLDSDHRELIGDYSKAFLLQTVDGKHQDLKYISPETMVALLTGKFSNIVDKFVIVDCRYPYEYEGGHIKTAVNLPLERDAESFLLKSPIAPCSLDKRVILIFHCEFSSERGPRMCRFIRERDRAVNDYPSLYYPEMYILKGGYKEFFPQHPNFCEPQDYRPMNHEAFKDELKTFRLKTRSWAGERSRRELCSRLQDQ

SMILES	IC50
O=C1Nc2ccccc2SC(c2ccccc2)C1O (stereo not drawn) [3-hydroxy-2-phenyl-2,3-dihydro-1,5-benzothiazepin-4(5H)-one]	> 50 µM
Cc1ccc(/C=C/C2=Cc3c(sc(NC(=O)CSc4nnc(N)[nH]4)c3C#N)C(C)(C)C2)o1 [2-[(5-azanyl-1H-1,2,4-triazol-3-yl)sulfanyl]-N-[3-cyano-7,7-dimethyl-5-[(E)-2-(5-methylfuran-2-yl)ethenyl]-6H-1-benzothiophen-2-yl]ethanamide]	46.9 µM
O=C(Nc1ccc2nc(-c3ccco3)c(-c3ccco3)nc2c1)N1CCCCCC1	31.4 µM
Cc1cccc(N2CCN(C(=O)Cc3c(C(=O)O)[nH]c4ccc(Cl)cc34)CC2)c1C [5-chloranyl-3-[2-[4-(2,3-dimethylphenyl)piperazin-1-yl]-2-oxidanylidene-ethyl]-1H-indole-2-carboxylic acid]	> 50 µM
COCCCn1c(N)c(C(=O)NCCC(C)C)c2nc3ccccc3nc21 [MLS000041744]	> 50 µM
CCn1nc(-c2ccccc2)nc2c(=O)n(C)c(=O)nc1-2 [1-Ethyl-6-methyl-3-phenyl-1H-pyrimido[5,4-e][1,2,4]triazine-5,7-dione]	0.447 µM
CC(C)Cn1c(N)c(C(=O)COC(=O)c2cc(-c3ccco3)nc3ccccc23)c(=O)n(C)c1=O [2-(2-furanyl)-4-quinolinecarboxylic acid [2-[4-amino-1-methyl-3-(2-methylpropyl)-2,6-dioxo-5-pyrimidinyl]-2-oxoethyl] ester]	46.6 µM
Cc1ccc2c(c1C)NC(C(=O)O)C1CC=CC21 (stereo not drawn)	15.9 µM
CC1=C(/C=C/C(C)=C/C=C/C(C)=C/C(=O)O)C(C)(C)CCC1 [ALL-TRANS-RETINOIC ACID]	> 50 µM
CCCCCNC(=O)c1ccc2c(=O)[nH]c3c(C(=O)NCC4CCCO4)sc(=S)n3c2c1 (stereo not drawn) [5-oxo-N3-(2-oxolanylmethyl)-N8-pentyl-1-sulfanylidene-4H-thiazolo[3,4-a]quinazoline-3,8-dicarboxamide]	> 50 µM
[O-]/[N+](=C\c1ccncc1)c1ccccc1	> 50 µM
CCOc1ccc(-c2cc3nc(C4CCN(C(=O)OC(C)(C)C)CC4)c(C(=O)O)cn3n2)cc1 [2-(4-ethoxyphenyl)-5-[1-[(2-methylpropan-2-yl)oxy-oxomethyl]-4-piperidinyl]-6-pyrazolo[1,5-a]pyrimidinecarboxylic acid]	> 50 µM
Cc1ccc(C)n1-c1cccc(C(=O)O)c1	> 50 µM
Cc1cc(C)n2c(SCC(=O)N3CCN(S(=O)(=O)c4ccc(Cl)cc4)CC3)nnc2n1 [1-[4-(4-chlorophenyl)sulfonyl-1-piperazinyl]-2-[(5,7-dimethyl-[1,2,4]triazolo[4,3-a]pyrimidin-3-yl)thio]ethanone]	> 50 µM
CCOc1cc(/C=C(/C#N)c2ccc(F)cc2)ccc1OCc1ccc(C(=O)O)o1 [5-[[4-[(E)-2-cyano-2-(4-fluorophenyl)ethenyl]-2-ethoxyphenoxy]methyl]furan-2-carboxylic acid]	> 50 µM
O=C1C=Cc2ccccc2C1=O [1,2-dihydronaphthalene-1,2-dione]	19 µM
O=C(NC1(O)C(=O)c2ccccc2C1=O)c1ccccc1 [N-(2-hydroxy-1,3-dioxo-2-indenyl)benzamide]	12.6 µM
O=C(c1cccs1)c1no[n+]([O-])c1C(=O)c1cccs1 [(5-oxidanidyl-4-thiophen-2-ylcarbonyl-1,2,5-oxadiazol-5-ium-3-yl)-thiophen-2-yl-methanone]	> 50 µM
COc1ccc(-c2cc3nc(C4CCN(C(=O)OC(C)(C)C)CC4)c(C(=O)O)cn3n2)cc1 [2-(4-methoxyphenyl)-5-[1-[(2-methylpropan-2-yl)oxy-oxomethyl]-4-piperidinyl]-6-pyrazolo[1,5-a]pyrimidinecarboxylic acid]	> 50 µM
O=C(Nc1ccccc1)c1ccc2nc(-c3ccco3)c(-c3ccco3)nc2c1 [2,3-di-2-furyl-N-phenyl-6-quinoxalinecarboxamide]	35.6 µM
CCOC(=O)c1ccc2c(c1)C1C=CCC1C(C(=O)O)N2 (stereo not drawn) [MLS-0025126.0001]	18.2 µM
Cn1ncnc2c(=O)n(C)c(=O)nc1-2	0.396 µM
CCCCC[C@H](O)C=C[C@H]1C=CC(=O)[C@@H]1C/C=C\CCCC(=O)O [(Z)-7-[(1R,5S)-2-oxidanylidene-5-[(E,3S)-3-oxidanyloct-1-enyl]cyclopent-3-en-1-yl]hept-5-enoic acid]	> 50 µM
COc1ccc(Br)cc1C=c1sc2nc(-c3ccco3)nn2c1=O [5-[(5-bromanyl-2-methoxy-phenyl)methylidene]-2-(furan-2-yl)-[1,3]thiazolo[3,2-b][1,2,4]triazol-6-one]	14.8 µM
N#Cc1c(N)sc(=S)c2c1CCN(Cc1ccccc1)C2 [3-Amino-7-benzyl-1-thioxo-5,6,7,8-tetrahydro-1H-thiopyrano[3,4-c]pyridine-4-carbonitrile]	4.99 µM
CCCSc1nnc(NC(=O)c2sc3nc(-c4cccs4)ccc3c2N)s1 [3-amino-N-(5-propylsulfanyl-1,3,4-thiadiazol-2-yl)-6-thiophen-2-ylthieno[2,3-b]pyridine-2-carboxamide]	> 50 µM
CCn1c(SCC(=O)Nc2nc3ccc(OC)cc3s2)nc2c1c(=O)n(C)c(=O)n2C [2-(7-Ethyl-1,3-dimethyl-2,6-dioxo-2,3,6,7-tetrahydro-1H-purin-8-ylsulfanyl)-N-(6-methoxy-benzothiazol-2-yl)-acetamide]	> 50 µM
Cc1cccc(NC(=O)c2cc(NC(=O)C3CCCCC3C(=O)O)ccc2N2CCCCC2)c1 (stereo not drawn) [2-({[3-{[(3-methylphenyl)amino]carbonyl}-4-(1-piperidinyl)phenyl]amino}carbonyl)cyclohexanecarboxylic acid]	> 50 µM
CCn1nc(-c2cccs2)nc2c(=O)n(C)c(=O)nc1-2 [1-ethyl-6-methyl-3-thiophen-2-yl-pyrimido[5,4-e][1,2,4]triazine-5,7-dione]	0.552 µM

Next, values leading:

IC50	SMILES
> 50 µM	CCOc1ccc2noc3c2c1C(=O)c1ccccc1-3 [MLS000106837]
21.2 µM	N#Cc1c(N2CCCC2)nc(N)c2c(N)nc(N3CCCC3)cc12 [SMR000061605]
> 50 µM	CC(C)Sc1nc2sc3c(c2c2nnc(SCC(=O)NCc4ccco4)n12)CCCC3 [MLS000082957]
> 50 µM	COc1ccc2noc3c2c1C(=O)c1ccccc1-3 [MLS000106874]
31.5 µM	CCCCn1c(NC(=O)c2ccccc2)c(C#N)c2nc3ccccc3nc21 [SMR000060333]
46.8 µM	COc1ccc(Cn2c(C)nc3c(c2=O)c2nc4ccccc4nc2n3Cc2ccco2)cc1 [MLS000079944]
> 50 µM	FC(F)(F)c1ccc(N2CCOCC2)c(Nc2nc3ccccc3n3cnnc23)c1 [MLS000093276]
13.7 µM	Cc1c(N=c2c(=O)c3ccccc3c2=O)c(=O)n(-c2ccccc2)n1C [MLS000105950]
> 50 µM	COC(=O)c1ccccc1NC(=O)CN1C(=O)C2CCCN2c2ncc(Cl)cc21 (stereo not drawn) [MLS000094302]
> 50 µM	Cc1cc(NC(=O)c2ccc(S(=O)(=O)N3CCCC3)cc2)nc2c1c(=O)oc1ccccc12 [MLS000091355]
35.8 µM	Cc1ccc(-c2csc(NC(=O)c3ccno3)n2)cc1 [MLS000081820]
46.1 µM	CCn1c(SCC(=O)Nc2ccc3c(c2)c2ccccc2n3CC)nnc1-c1ccco1 [MLS000050867]
9.6 µM	O=C(OC1CCCCC1)c1ccc2c(c1)C1C=CCC1C(C(=O)O)N2 (stereo not drawn) [SMR000019385]
> 50 µM	CCc1ccc(NC(=O)CSc2nc3ccccc3c(=O)n2CCN2CCOCC2)cc1 [MLS000095236]
